The conditions of series [1]: counter-ions studied during the initial salt screening; cited from earlier work.
A short description of series [2]: Qualitative solubility in water. It counts as physicochemical. The conditions noted are these: at RT. The text has this:
No signs of acetic acid were observed.

Series [3] in a line: Exposure of amorphous salts to humidity (saturated NaCl solution, 75% RH at room temperature) for stability assessment. It counts as physicochemical. The note with it: for behaviour on exposure to 75% RH: a week of exposure (repeat). The source says:
Although amorphous, salts that were produced earlier were exposed to Humidity through saturated NaCl solution (75% RH at room temperature) for stability assessment.
Other salts of SBT-020 that were made during the initial screening that were missing in Table 13 were exposed to 75% RH. The missing salts were Maleate, Salicylate, Tartarate (repeat), Succinate and Phosphate (repeat).

Where two headings read alike, the source gives them in different places. Non-standard residues stand in square brackets, D forms with d. Residues, ends and D or L forms follow the SMILES beside them.

For the compound `O=S(=O)(O)c1ccccc1` [Benzene sulfonic acid], in series [1], the pKa1 is recorded as −2.8.
On to `Br` [Hydrobromic acid], for which the pKa1 in series [1] was −8.
For the compound `O=C(O)CC(O)C(=O)O` (stereo not shown) [Malic acid], in series [1], the pKa1 is 3.4 and the pKa2 was 5.2.
`N=C(N)NCCC[C@@H](NC(=O)[C@@H](N)Cc1ccccc1)C(=O)N[C@@H](Cc1ccccc1)C(=O)N[C@@H](CCCCN)C(N)=O` [Tosylate] (H-F[dR]FK-NH2) displayed a solubility in series [2] greater than 100 mg/mL. In addition, the “physical stability upon humidity exposure” value in series [3] (saturated NaCl solution, 75% RH at room temperature, amorphous salts) was “demonstrated physical stability upon humidity exposure”; in series [3] (saturated NaCl solution, 75% RH at room temperature, amorphous salts, listed as tosylate), “best stability under humidity exposure”.
As for Phosphate, in series [3], the “physical stability upon humidity exposure” value is “demonstrated physical stability upon humidity exposure” and the “behaviour on exposure to 75% RH” value is listed as “became wet, though they did not deliquesce even after a week”.
As to Tartarate, the “behaviour on exposure to 75% RH” value in series [3] is “became wet, though they did not deliquesce even after a week”.

The values are drawn from patent publication US11325943B2, “Crystalline salt forms of SBT-20” (priority 2017, dated 2022).
